# Reference: ChEMBL document CHEMBL1201862, “PubChem BioAssay data set” (2004)
#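 Briefly, cells in 96-well plates were exposed to five compound concentrations for 48 h, and endpoints were estimated by linear interpolation. GI50 = concentration required for 50% inhibition of growth.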 Activity calls are given as the source filed them. No stated cut-off is given here; in the data, active = GI50 up to about 1.1 µM and inactive = higher. Residues, ends and D or L forms follow the SMILES beside them. *: point of attachment. Boc = CC(C)(C)OC(=O)*; OBn = c1ccc(CO*)cc1; Bn = c1ccc(C*)cc1
# Columns and labels:
# Test in all cases: NCI-60 cell line screen, 48 h
# [1] = tested on: CAKI-1
# [2] = tested on: COLO 205
# [3] = tested on: DU-145
# [4] = tested on: HCT-15
# [5] = tested on: HOP-92
# [6] = tested on: HT-29
# [7] = tested on: LOX IMVI
# [8] = tested on: MOLT-4
# [9] = tested on: NCI-H460
# [10] = tested on: OVCAR-8
# [11] = tested on: PC-3
# [12] = tested on: RPMI-8226
# [13] = tested on: SK-MEL-2
# [14] = tested on: SK-MEL-5
# [15] = tested on: SK-OV-3
# [16] = tested on: SN12C
# [17] = tested on: TK-10
# [18] = tested on: HCC 2998
# [19] = tested on: T47D
# [20] = tested on: BT-549
Compound,GI50 [1],GI50 [2],GI50 [3],GI50 [4] [µM],GI50 [5],GI50 [6],GI50 [7],GI50 [8],GI50 [9],GI50 [10],GI50 [11],GI50 [12],GI50 [13],GI50 [14],GI50 [15],GI50 [16],GI50 [17],GI50 [18],GI50 [19],GI50 [20]
O=C(O)CCCNc1ncc2c(n1)-c1ccccc1OC2,> 100 µM (inactive),> 100 µM (inactive),> 100 µM (inactive),> 100,> 100 µM (inactive),> 100 µM (inactive),> 100 µM (inactive),> 100 µM (inactive),> 100 µM (inactive),> 100 µM (inactive),> 100 µM (inactive),> 100 µM (inactive),> 100 µM (inactive),> 100 µM (inactive),> 100 µM (inactive),> 100 µM (inactive),> 100 µM (inactive),–,–,–
Nc1ccccc1C(=O)CCC1C(=O)NC(=S)NC1=O,> 100 µM (inactive),> 100 µM (inactive),> 100 µM (inactive),> 100,> 91.4 µM (inactive),> 100 µM (inactive),> 100 µM (inactive),> 100 µM (inactive),> 100 µM (inactive),> 100 µM (inactive),> 100 µM (inactive),> 100 µM (inactive),> 100 µM (inactive),> 100 µM (inactive),> 100 µM (inactive),–,> 100 µM (inactive),> 100 µM (inactive),> 100 µM (inactive),–
C1CCC2C(C1)CCCC2NC1=NCCO1 (centres undefined),> 100 µM (inactive),> 100 µM (inactive),> 100 µM (inactive),> 100,–,35.7 µM (inactive),> 100 µM (inactive),> 100 µM (inactive),> 100 µM (inactive),> 100 µM (inactive),93.5 µM (inactive),92.5 µM (inactive),> 100 µM (inactive),70 µM (inactive),> 100 µM (inactive),> 100 µM (inactive),> 100 µM (inactive),72.9 µM (inactive),> 100 µM (inactive),–
O=C1C(Cl)=C(N2CCN(CCOCCO)CC2)C(=O)c2ccccc21,15.7 µM (inactive),15.2 µM (inactive),19.2 µM (inactive),11.9,1.49 µM (inactive),16 µM (inactive),6.4 µM (inactive),2.05 µM (inactive),17.9 µM (inactive),14.9 µM (inactive),18 µM (inactive),3.45 µM (inactive),8.89 µM (inactive),14.7 µM (inactive),15.3 µM (inactive),15.2 µM (inactive),20.2 µM (inactive),18.2 µM (inactive),1.85 µM (inactive),–
COc1cc(/C=C2\N=C(C)N(n3c(-c4ccccc4)nc4ccccc4c3=O)C2=O)cc(OC)c1OC,> 100 µM (inactive),> 100 µM (inactive),> 100 µM (inactive),> 100,–,> 100 µM (inactive),> 100 µM (inactive),> 100 µM (inactive),> 100 µM (inactive),> 100 µM (inactive),> 100 µM (inactive),85.3 µM (inactive),–,> 100 µM (inactive),> 100 µM (inactive),> 100 µM (inactive),> 100 µM (inactive),> 100 µM (inactive),82.4 µM (inactive),> 100 µM (inactive)
S=C=NC1CCC(c2cc3ccccc3s2)(N2CCCCC2)CC1 (centres undefined),1.88 µM (inactive),1.98 µM (inactive),2.08 µM (inactive),1.53,1.68 µM (inactive),1.77 µM (inactive),1.64 µM (inactive),0.127 µM (active),1.87 µM (inactive),1.95 µM (inactive),–,1.46 µM (inactive),–,1.56 µM (inactive),2.22 µM (inactive),1.82 µM (inactive),2 µM (inactive),1.8 µM (inactive),2.99 µM (inactive),2.09 µM (inactive)
CCN(CC)Cc1ccccc1CC(=O)N1c2ccccc2C(=O)Nc2cccnc21,> 100 µM (inactive),86.1 µM (inactive),> 100 µM (inactive),> 100,> 100 µM (inactive),> 100 µM (inactive),> 100 µM (inactive),46.7 µM (inactive),> 100 µM (inactive),> 100 µM (inactive),> 100 µM (inactive),> 100 µM (inactive),> 100 µM (inactive),> 100 µM (inactive),> 100 µM (inactive),> 100 µM (inactive),> 100 µM (inactive),> 100 µM (inactive),> 100 µM (inactive),–
CC(C)CC(NC(=O)C(Cc1ccccc1)NC(=O)C(COCc1ccccc1)NC(=O)OC(C)(C)C)C(=O)OCc1ccccc1 (stereo not drawn) (Boc-Ser(Bn)-Phe-Leu-OBn; configuration not given here),30 µM (inactive),17.5 µM (inactive),9.57 µM (inactive),16.3,–,15.9 µM (inactive),19.8 µM (inactive),13.9 µM (inactive),11.9 µM (inactive),18.7 µM (inactive),22.3 µM (inactive),6.95 µM (inactive),56.6 µM (inactive),–,36.4 µM (inactive),25.8 µM (inactive),34 µM (inactive),14.7 µM (inactive),> 100 µM (inactive),–
